Assay results: ChEMBL document CHEMBL1136265, “Dihydropyrimidinones--a new class of anti-staphylococcal antibiotics” (Bioorg Med Chem Lett, 2003)
≈ marks a conversion by molar mass, not a printed value.

How the values were obtained:
[1] = In vitro selectivity ratio of procaryotic translation to eukaryotic translation; type: functional
[2] = system: Mus musculus; test: In vivo inhibitory activity against Staphylococcus aureus 133 after iv dose using murine sepsis model; type: functional
[3] = system: Staphylococcus aureus; test: Minimum inhibitory concentration against Staphylococcus aureus in vitro.; type: functional
[4] = In vitro inhibition of eucaryotic translation using […].; type: functional
[5] = system: J774; test: Cytotoxicity against macrophage cell line (J774); type: functional, cell-based; conditions: Mus musculus
[6] = system: Escherichia coli; test: In vitro inhibition of procaryotic translation using Escherichia coli S30 Extract system for Circular DNA.; type: functional

Row | MIC [3] [µg/mL] | IC50 [4] [nM] | IC50 [6] [nM] | SMILES | Selectivity ratio [1] | ED100 [2] [mg/kg] | EC50 [5] [nM]
1 | 0.05 | 2800 |  | CN(C(=O)C[C@@H](N)CCCCN)C1CN=C(NC(N)=O)NC1=O.Cl.Cl (some centres not stated) | 5.3 | 0.25 | 6000
2 | 0.4 | 1200 | 1000 | CC(N)CCC(N)CC(=O)N(C)C1CN=C(NC(N)=O)NC1=O.Cl.Cl (configuration not stated) | 1.2 |  | 
3 | 50 | 260 | 500 | CN(C(=O)CC(N)c1cccc(NC(=N)N)c1)C1CN=C(NC(N)=O)NC1=O.Cl.Cl (configuration not stated) | 0.52 |  | 
4 | 0.4 | 3700 | 2000 | CN(C(=O)C[C@@H](N)CCCN)C1CN=C(NC(N)=O)NC1=O.Cl.Cl (some centres not stated) | 1.9 | 0.2 | 25000
5 | 3.2 |  | 3000 | CN(C(=O)C[C@@H](N)CC(=O)CCN)C1CN=C(NC(N)=O)NC1=O.Cl.Cl (some centres not stated) |  |  | 
6 | 0.8 | 7600 | 4000 | CCNCCC[C@H](N)CC(=O)N(C)C1CN=C(NC(N)=O)NC1=O.Cl.Cl (some centres not stated) | 1.9 |  | 
7 | 0.8 | 4500 |  | C/N=C(/N)NCCC[C@H](N)CC(=O)N(C)C1CN=C(NC(N)=O)NC1=O.Cl.Cl (some centres not stated) | 9.1 | 2 | 5500
8 | 3.2 | 2400 | 2400 | CN(C(=O)C[C@@H](N)CC[C@H](N)CO)C1CN=C(NC(N)=O)NC1=O.Cl.Cl (some centres not stated) | 1 |  | 
9 | 50 | 25000 | 25000 | CN(C(=O)C[C@@H](N)CCCC#N)C1CN=C(NC(N)=O)NC1=O.Cl (some centres not stated) | 1 |  | 
10 | 100 |  | > 64000 | CN(C(=O)CC(N)CCCO)C1CN=C(NC(N)=O)NC1=O.Cl (configuration not stated) |  |  | 
11 | 12.5 | 9400 | 9400 | Br.Br.CN(C(=O)C[C@@H](N)CCCNC1=NCCN1)C1CN=C(NC(N)=O)NC1=O (some centres not stated) | 1 |  | 
12 | 0.1 | 170 |  | CN(C(=O)C[C@@H](N)CCCN=C(N)N)C1CN=C(NC(N)=O)NC1=O.Cl.Cl (some centres not stated) | 0.57 | 0.25 | 250
13 | 100 (≈ 269 µM) |  | > 64000 | COC(=O)NCCC[C@H](N)CC(=O)N(C)C1CN=C(NC(N)=O)NC1=O (some centres not stated) |  |  | 
14 | 0.4 | 600 |  | C/C(N)=N/CCC[C@H](N)CC(=O)N(C)C1CN=C(NC(N)=O)NC1=O.Cl.Cl (some centres not stated) | 0.17 |  | 
15 | 12.5 |  | 64000 | CN(C(=O)C[C@@H](N)CCC(N)=O)C1CN=C(NC(N)=O)NC1=O.Cl (some centres not stated) |  |  | 
16 | 6.3 | 9400 | 6000 | CN(C(=O)C[C@H](N)CCCN)C1CN=C(NC(N)=O)NC1=O.Cl.Cl (some centres not stated) | 1.6 |  | 
17 | 6.3 |  | 1500 | CN(C(=O)CC(N)CC1CNCCO1)C1CN=C(NC(N)=O)NC1=O.Cl.Cl (configuration not stated) |  |  | 
18 | 25 | 1200 | 1200 | CN(C(=O)C[C@@H](N)CCN=C(N)N)C1CN=C(NC(N)=O)NC1=O.Cl.Cl (some centres not stated) | 1 |  | 
19 | 0.4 | 3200 | 3000 | CN(C(=O)C[C@@H](N)CC(O)CCN)C1CN=C(NC(N)=O)NC1=O.Cl.Cl (some centres not stated) |  |  | 
20 | 0.4 | 200 | 200 | CN(C(=O)C[C@@H](N)CCC/N=C(/N)S)C1CN=C(NC(N)=O)NC1=O.Cl (some centres not stated) | 1 |  | 
21 | 0.2 | 1600 | 300 | CN(C(=O)C[C@@H](N)CCCCN=C(N)N)C1CN=C(NC(N)=O)NC1=O.Cl.Cl (some centres not stated) | 5.3 |  | 
